The record followed here is patent US8629273B2, “Diazinylpyrazolyl compounds” (Bayer Intellectual Property GmbH, priority 2009, dated 2014).

Data set [1] relates to larvae of the mustard beetle (Phaedon cochleariae). As to the kind of experiment: Phaedon test (PHAECO spray treatment). In kind it is in vivo. The following applies: 100 g/ha, after 7 days. As for the experimental part:
(§1) Solvents: 78.0 parts by weight of acetone • • 1.5 parts by weight of dimethyl formamide Emulsifier: 0.5 part by weight of alkylaryl polyglycol ether To produce a suitable preparation of active compound, 1 part by weight of active compound is mixed with the stated amounts of solvent and emulsifier, and the concentrate is diluted with emulsifier-containing water to the desired concentration. Discs of Chinese cabbage leaves (Brassica pekinensis) are sprayed with an active compound preparation of the desired concentration and, after drying, populated with larvae of the mustard beetle (Phaedon cochleariae). After 7 days, the activity in % is determined. 100% means that all beetle larvae have been killed; 0% means that none of the beetle larvae have been killed. The test was carried out and evaluated as described in Example B.4.

Data set [2] concerns caterpillars of the army worm (Spodoptera frugiperda). Briefly: Spodoptera frugiperda test (SPODFR spray treatment). In kind it is in vivo. The following applies: after 7 days. As for the experimental part: as §1, with “maize” for “Chinese cabbage”, “(Zea mays)” for “(Brassica pekinensis)”, “caterpillars” for “larvae”, “army worm (Spodoptera frugiperda).” for “mustard beetle (Phaedon cochleariae).”, “caterpillars” for “beetle larvae”, “B.5.” for “B.4.”

The test system of data set [3] is greenhouse red spider mite (Tetranychus urticae). As to the kind of experiment: Tetranychus test, OP resistant (TETRUR spray treatment). In kind it is in vivo. As to conditions: after 6 days. As for the experimental part:
Solvents: 78.0 parts by weight of acetone • • 1.5 parts by weight of dimethyl formamide Emulsifier: 0.5 part by weight of alkylaryl polyglycol ether To produce a suitable preparation of active compound, 1 part by weight of active compound is mixed with the stated amounts of solvent and emulsifier, and the concentrate is diluted with emulsifier-containing water to the desired concentration. Discs of bean leaves (Phaseolus vulgaris) which are infested by all stages of the greenhouse red spider mite (Tetranychus urticae) are sprayed with an active compound preparation of the desired concentration. After 6 days, the activity in % is determined. 100% means that all spider mites have been killed; 0% means that none of the spider mites has been killed. The test was carried out and evaluated as described in Example B.7.

Data set [4] can be described thus: logP by HPLC on reversed-phase columns (C 18), EU Guideline 79/831 Annex V.A8. The following applies: ** LC-MS in the neutral range, pH 7.8, 0.001 molar aqueous ammonium bicarbonate and acetonitrile. In kind it is physicochemical.
In data set [5] the test system is Lucilia cuprina larvae. Briefly: Lucilia cuprina test (LUCICU). In kind it is in vivo. As to conditions: 100 ppm, treated horse meat, after 2 days. The protocol:
Solvent: Dimethyl Sulphoxide To produce a suitable preparation of active compound, 10 mg of active compound are mixed with 0.5 ml of dimethyl sulphoxide, and the concentrate is diluted with water to the desired concentration. Containers containing horse meat treated with the active compound preparation of the desired concentration are populated with Lucilia cuprina larvae. After 2 days, the kill in % is determined. 100% means that all larvae have been killed; 0% means that none of the larvae have been killed.

The test system of data set [6] is Ctenocephalides felis. Briefly: Ctenocephalides felis oral (CTECFE). It counts as in vivo. The following applies: 100 ppm in citrated cattle blood, after 2 days. As for the experimental part:
Solvent: 1 part by weight of dimethyl sulphoxide To produce a suitable preparation of active compound, 10 mg of active compound are mixed with 0.5 ml of dimethyl sulphoxide. One part of the concentrate is diluted with citrated cattle blood, and the desired concentration is prepared. 20 unfed adult fleas (Ctenocephalides felis) are placed into a chamber whose top and bottom ends are closed with gauze. A metal cylinder whose bottom end is closed with parafilm is placed onto the chamber. The cylinder contains the blood/active compound preparation, which can be taken up by the fleas through the parafilm membrane. After 2 days, the kill in % is determined. 100% means that all fleas have been killed; 0% means that none of the fleas have been killed.

Data set [7] concerns Boophilus microplus. Briefly: Boophilus microplus test (BOOPMI injection). As to conditions: 20 μg/animal, injected into the abdomen, after 7 days. It counts as in vivo. As for the experimental part:
Solvent: Dimethyl Sulphoxide To produce a suitable preparation of active compound, 10 mg of active compound are mixed with 0.5 ml of solvent, and the concentrate is diluted with water to the desired concentration. The active compound solution is injected into the abdomen (Boophilus microplus) and the animals are transferred into dishes and stored in a climatized room. The activity is monitored for deposition of fertile eggs. After 7 days, the activity in % is determined. 100% means that none of the ticks has laid fertile eggs.

In data set [8] the test system is Boophilus microplus strain Parkhurst (SP-resistant). Briefly: Boophilus microplus test (DIP). In kind it is in vivo. The following applies: 100 ppm. As for the experimental part:
Test animals: adult fed females of the Boophilus microplus strain Parkhurst (SP-resistant)
Solvent: Dimethyl sulphoxide
10 mg of active compound are dissolved in 0.5 ml of dimethyl sulphoxide. To produce a suitable formulation, the active compound solution is diluted with water to the particular desired concentration. This active compound preparation is pipetted into tubes. 8-10 ticks are transferred into a further tube provided with holes. The tube is dipped into the active compound preparation, with all ticks being wetted completely. After the liquid has run off, the ticks are transferred to filter discs in plastic dishes and kept in a climatized room. After the desired period of time, the activity is checked for deposition of fertile eggs. Eggs whose fertility is not visible from the outside are kept in glass tubes in a climatized cupboard under the larvae have hatched. An activity of 100% means that no tick has laid fertile eggs.

Data set [9] deals with adult Musca domestica. Briefly: Musca domestica test (MUSCDO). It counts as in vivo. As to conditions: treated sponge. The protocol: Solvent: Dimethyl sulphoxide To prepare a suitable preparation of active compound, 10 mg of active component are mixed with 0.5 ml of dimethyl sulphoxide, and the concentrate is diluted with water to the desired concentration. Vessels containing a sponge which had been treated with the active compound preparation of the desired concentration are populated with adult Musca domestica. After the desired period of time, the kill in % is determined. 100% means that all flies have been killed; 0% means that none of the flies have been killed.

As for `COc1cc(C=Nc2c(-c3cc(Cl)cc(C(F)(F)F)c3)c(C(F)(F)F)nn2-c2ncccn2)ccc1O` [Example 1-10], in data set [1], the “activity (beetle larvae killed)” value worked out at 100%. The “activity (caterpillars killed)” value in data set [2] (100 g/ha) is given as 100%. Moreover, in [3] (100 g/ha), the “activity (spider mites killed)” value was found to be 100%. In addition, the logP in data set [4] is reported as 4.05**.
In the case of `FC(F)C(F)(F)c1nn(-c2ncccn2)c(N=Cc2ccccc2)c1-c1cc(Cl)c2c(c1)OCO2` [Example 1-24], the kill in [5] was determined as 100%; in data set [6], 100%; in [9] (100 ppm) it was 80%. Moreover, the “activity (no deposition of fertile eggs)” value in data set [7] and in [8] was 100% throughout. In addition, in data set [1], the “activity (beetle larvae killed)” value came out at 100%. The “activity (caterpillars killed)” value in data set [2] (100 g/ha) was determined as 100%. Besides, the logP in data set [4] is recorded as 3.9**.
Turning to `FC(F)(F)c1nn(-c2ncccn2)c(N=Cc2ccc(Cl)cc2)c1-c1cc(Cl)c2c(c1)OCO2` [Example 1-25], the kill in data set [5], in data set [6] and in [9] (20 ppm) was 100% each time. For the same compound, the “activity (no deposition of fertile eggs)” value in data set [7] and in [8] was 100% throughout. Further, the “activity (beetle larvae killed)” value in data set [1] came to 100%. In [2] (100 g/ha), the “activity (caterpillars killed)” value worked out at 100%. Also, the logP in data set [4] was 4.51**.
Consider `COc1ccc(C=Nc2c(-c3cc(Cl)c4c(c3)OCO4)c(C(F)(F)F)nn2-c2ncccn2)cc1` [Example 1-26], for which the kill in data set [5] and in data set [6] was 100% throughout. Also, the “activity (no deposition of fertile eggs)” value in data set [7] and in [8] was 100% in each case. In addition, the “activity (beetle larvae killed)” value in [1] stood at 100%. In data set [2] (100 g/ha), the “activity (caterpillars killed)” value is 100%. For the same compound, in data set [4], the logP is reported as 3.97**.
Regarding `COc1cc(C=Nc2c(-c3cc(Cl)c4c(c3)OCO4)c(C(F)(F)F)nn2-c2ncccn2)cc(OC)c1OC` [Example 1-27], the kill worked out at 100% in data set [5], 100% in data set [6] and 80% in data set [9] (100 ppm). Also, the “activity (no deposition of fertile eggs)” value in [7] and in data set [8] was 100% in each case. The “activity (beetle larvae killed)” value in [1] is 100%. The logP in data set [4] is 3.82**.
For the compound `COc1cc(C=Nc2c(-c3cc(Cl)c4c(c3)OCO4)c(C(F)(F)C(F)F)nn2-c2ncccn2)cc(OC)c1OC` [Example 1-30], the kill in data set [5] and in data set [6] was 100% each time. The “activity (no deposition of fertile eggs)” value in data set [7] and in data set [8] was 100% in each case. Besides, the “activity (beetle larvae killed)” value in data set [1] came out at 100%. In addition, the “activity (caterpillars killed)” value in [2] (100 g/ha) is given as 100%. The logP in [4] is reported as 3.72**.
Turning to `CCOC=Nc1c(-c2cc(Cl)c3c(c2)OCO3)c(C(F)(F)F)nn1-c1ncccn1` [Example 1-33], the kill in [5] and in data set [6] was 100% throughout. For the same compound, the “activity (no deposition of fertile eggs)” value in [7] and in data set [8] was 100% throughout. Also, the “activity (beetle larvae killed)” value in data set [1] was 100%. Also, the “activity (caterpillars killed)” value in data set [2] (100 g/ha) is given as 100%. The logP in [4] is reported as 3.49**.
As for `COc1nccnc1-n1nc(C(F)(F)F)c(-c2cc(Cl)cc(C(F)(F)F)c2)c1N=Cc1ccc(Cl)cc1` [Example 2-7], the values for the kill in data set [5], in data set [6] and in [9] (100 ppm) were 100%, 90% and 90%, respectively. Moreover, the “activity (no deposition of fertile eggs)” value in [7] and in [8] was 100% in each case. In data set [4], the logP was 6.01**.
Consider `COc1nccnc1-n1nc(C(F)(F)C(F)F)c(-c2cc(Cl)cc(C(F)(F)F)c2)c1N=Cc1ccccc1` [Example 2-11], for which the kill came to 100% in data set [5], 90% in [6] and 90% in data set [9] (100 ppm). Moreover, the “activity (no deposition of fertile eggs)” value in [7] is given as 100%; in [8], 90%. The logP in data set [4] was 5.37**.
As for `COc1nccnc1-n1nc(C(F)(F)C(F)F)c(-c2cc(Cl)c3c(c2)OCO3)c1N=Cc1ccccc1` [Example 2-13], the kill in [5] amounted to 100%; in data set [6], 100%; in data set [9] (100 ppm) it was 80%. The “activity (no deposition of fertile eggs)” value in data set [7] and in [8] was 100% in each case. Also, in [4], the logP was 4.48**.
On to `COc1nccnc1-n1nc(C(F)(F)F)c(-c2cc(Cl)c3c(c2)OCO3)c1N=Cc1ccc(Cl)cc1` [Example 2-14], for which the kill in [5] is 100%; in [6] it was 100%; in [9] (100 ppm), 90%. In addition, the “activity (no deposition of fertile eggs)” value in data set [7] and in data set [8] was 100% throughout. For the same compound, the logP in data set [4] is 5.1**.
For `COc1cc(C=Nc2c(-c3cc(Cl)cc(C(F)(F)F)c3)c(C(F)(F)F)nn2-c2nccnc2OC)cc(OC)c1OC` [Example 2-16], the kill in data set [5] is recorded as 100%; in data set [9] (100 ppm), 90%. Also, the “activity (no deposition of fertile eggs)” value in data set [7] and in [8] was 100% each time. Besides, the logP in [4] is reported as 5.35**.
Consider `COc1cc(C=Nc2c(-c3cc(Cl)cc(C(F)(F)F)c3)c(C(F)(F)C(F)F)nn2-c2nccnc2OC)cc(OC)c1OC` [Example 2-17], for which the kill in data set [5] and in [9] (100 ppm) was 100% throughout. Besides, the “activity (no deposition of fertile eggs)” value in [7] and in data set [8] was 100% each time. Moreover, the logP in data set [4] is given as 5.12**.
For `FC(F)(F)c1nn(-c2ncccn2)c(NCc2ccccc2)c1-c1cc(Cl)c2c(c1)OCO2` [compound (XXI), reference compound], the “activity (caterpillars killed)” value in data set [2] (20 g/ha) was 0%. Moreover, the “activity (spider mites killed)” value in data set [3] (20 g/ha) is 0%.
With `COc1ccc(CNc2c(-c3cc(Cl)cc(C(F)(F)F)c3)c(C(F)(F)F)nn2-c2ncccn2)cc1` [compound (XXII), reference compound], the “activity (beetle larvae killed)” value in data set [1] is “no activity”. Besides, the “activity (caterpillars killed)” value in data set [2] (100 g/ha) is on record as “no activity”. The “activity (spider mites killed)” value in [3] (100 g/ha) is “no activity”.
